Laboratory results taken from patent publication US5985911A, “C-terminal ketone inhibitors of matrix metalloproteinases and TNFα secretion” (Abbott Laboratories, priority 1997, dated 1999).
pIC50: −log10 of the molar value. Where two headings read alike, the source gives them in different places.

Target: T1, stromelysin (Homo sapiens, UniProt P08254)
T1 construct: made in house; host or cells: E. coli
Test: Determination of stromelysin inhibition (thiopeptide ester substrate cleavage, DTNB, microtiter plate)
Assay type: biochemical
Protocol: The efficacy of the compounds of this invention as matrix metalloproteinase inhibitors was determined by measuring the inhibition of stromelysin. The inhibition of stromelysin by the compounds of this invention was determined as follows: Recombinant truncated stromelysin (human sequence) produced in E. coli was prepared by expression and purification of the protein as described by Ye et al., Biochemistry, 1992, 31, 11231-11235. The enzyme was assayed by its cleavage of the thiopeptide ester substrate Ac-Pro-Leu-Gly-[2-mercapto-4-methyl-pentanoyl]-Leu-Gly-OEt described by Weingarten and Feder, Anal. Biochem., 1985, 147, 437-440 (1985), as a substrate of vertebrate collagenase. The reported conditions were modified to allow assays to be carried out in a microtiter plate. Upon hydrolysis of the thioester bond, the released thiol group reacts rapidly with 5,5'-dithio-bis(2-nitrobenzoic acid) (DTNB), producing a yellow color which is measured by a microtiter plate reader set at 405 nm. The rates of cleavage of the substrate by stromelysin in the presence or absence of inhibitors are measured in a 30 min assay at ambient temperature. Solutions of the compounds in DMSO are prepared, and these are diluted at various concentrations into the assay buffer (50 mM MES/NaOH pH 6.5 with 10 mM CaCl2 and 0.2% Pluronic F-68), which is also used for dilution of the enzyme and substrate. The potency of the compounds [IC50 ] are calculated from the inhibition/inhibitor concentration data.

[1] = recombinant truncated stromelysin (human sequence), thiopeptide ester substrate, pH 6.5, 30 min, ambient temperature, read-out: IC50 (Inhibitory Potencies against Stromelysin)

T1 sequence (P08254 100-272 limits assumed): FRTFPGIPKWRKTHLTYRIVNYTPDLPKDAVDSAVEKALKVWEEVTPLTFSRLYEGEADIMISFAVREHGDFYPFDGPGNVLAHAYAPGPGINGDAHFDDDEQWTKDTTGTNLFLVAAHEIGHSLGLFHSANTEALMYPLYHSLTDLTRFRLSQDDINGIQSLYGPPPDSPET

Row | pIC50 [1] | Compound | pIC50
1 | 8.77 | C=CC[C@H](C(=O)NO)[C@@H](CC(C)C)C(=O)N[C@@H](Cc1ccccc1)C(=O)c1ccc[nH]1 [Example 21] | –
2 | 6.49 | O=C(c1c[nH]c2ccccc12)[C@H](Cc1ccccc1)NC(=O)[C@@H](CCCc1ccccc1)[C@H](O)C(=O)NO [Example 28] | –
3 | 6.96 | O=C(C[C@H](C(=O)N[C@@H](Cc1ccc(O)cc1)C(=O)c1ccccc1)C1CCCCC1)NO [Example 33] | –
4 | 6.13 | CC(C)C[C@H](CC(=O)NO)C(=O)N[C@@H](CC(=O)O)C(=O)c1c[nH]c2ccccc12 [Example 31] | –
5 | 8.14 | C=CC[C@H](C(=O)NO)[C@@H](CC(C)C)C(=O)N[C@@H](CC1CCCCC1)C(=O)c1ccccc1 [Example 20] | –
6 | 8.11 | CC(C)C[C@@H](C(=O)N[C@@H](Cc1ccccc1)C(=O)c1c[nH]c2ccccc12)[C@H](O)C(=O)NO [Example 12] | –
7 | 7.57 | CC(C)C[C@@H](C(=O)N[C@@H](Cc1ccccc1)C(=O)c1ccccc1)[C@H](O)C(=O)NO [Example 15] | –
8 | 6.49 | CON=C(c1c[nH]c2ccccc12)[C@H](Cc1ccccc1)NC(=O)[C@@H](CC(=O)NO)CC(C)C [Example 30] | –
9 | 7.80 | C=CC[C@H](C(=O)NO)[C@@H](CC(C)C)C(=O)N[C@@H](Cc1ccccc1)C(C)=O [Example 17] | –
10 | 8.92 | CC(C)C[C@@H](C(=O)N[C@H](C(=O)c1c[nH]c2ccccc12)C(C)(C)C)[C@H](O)C(=O)NO [Example 14] | –
11 | 8.57 | O=C(c1c[nH]c2ccccc12)[C@H](Cc1ccccc1)NC(=O)[C@H](CCCc1ccccc1)[C@H](O)C(=O)NO [Example 27] | –
12 | 8.82 | C=CCCC[C@H](C(=O)NO)[C@@H](CC(C)C)C(=O)N[C@@H](Cc1ccc(O)cc1)C(=O)c1ccccc1 [Example 19] | –
13 | 8.35 | C=CC[C@H](C(=O)NO)[C@@H](CC(C)C)C(=O)N[C@@H](Cc1ccccc1)C(=O)c1ccccc1 [Example 18] | –

Second part, the compound before the results:

Row | Compound | pIC50 [1] | pIC50
14 | C=CCCC[C@H](C(=O)NO)[C@@H](CCCc1ccc(C)cc1)C(=O)N[C@@H](Cc1ccccc1)C(=O)c1c[nH]c2ccccc12 [Example 8] | 8.07 | –
15 | C=CC[C@H](C(=O)NO)[C@@H](CC(C)C)C(=O)N[C@H](C(=O)c1c[nH]c2ccccc12)C(C)(C)C [Example 9] | 8.92 | –
16 | CC(C)C[C@@H](C(=O)N[C@H](Cc1ccccc1)C(=O)c1c[nH]c2ccccc12)[C@H](O)C(=O)O [Example 11] | 4.03 | –
17 | CC(C)C[C@@H](C(=O)N[C@H](Cc1ccccc1)C(=O)c1c[nH]c2ccccc12)[C@H](O)C(=O)NO [Example 13] | – | 7.00
18 | C=CCCC[C@H](C(=O)O)[C@@H](CCCc1ccc(C)cc1)C(=O)N[C@@H](Cc1ccccc1)C(=O)c1c[nH]c2ccccc12 [Example 7] | 8.10 | –
19 | C=CC[C@H](C(=O)NO)[C@@H](CC(C)C)C(=O)NC(Cc1ccccc1)C(=O)c1nccs1 (stereo partly drawn) [Example 26] | – | 6.66
20 | C=CC[C@H](C(=O)NO)[C@@H](CC(C)C)C(=O)NC(Cc1ccccc1)C(=O)c1cccnc1 (stereo partly drawn) [Example 22] | – | 8.00
21 | CC(C)C[C@@H](C(=O)N[C@@H](Cc1ccccc1)C(=O)c1c[nH]c2ccccc12)[C@H](O)C(=O)O [Example 10] | 5.15 | –
22 | Cc1ccc(CCC[C@H](CC(=O)NO)C(=O)N[C@@H](Cc2ccccc2)C(=O)c2c[nH]c3ccccc23)cc1 [Example 6] | 7.92 | –
23 | CC(C)C[C@H](CC(=O)NO)C(=O)N[C@@H](Cc1ccccc1)C(=O)c1c[nH]c2ccccc12 [Example 5] | 8.25 | –
24 | C=CCCC[C@H](C(=O)NO)[C@@H](CC(C)C)C(=O)N[C@@H](Cc1ccccc1)C(=O)c1c[nH]c2ccccc12 [Example 2] | 8.44 | –
